# Laboratory results taken from publication PMC6615598, “Novel antibiotics effective against gram-positive and -negative multi-resistant bacteria with limited resistance” (PLoS Biology, 2019).
# Several values for one entry are separate records, joined by “and”; a condition that tells them apart may be missing. Equal entries are not always repeated.
# Legend:
# [1] = system: S. aureus Mu3 (MRSA); assay: microbe, parasite or virus in culture
# Description: (§1) (10−4 M final concentrations). At selected time intervals, 100 μl of reaction mixture was collected, quenched by 200 μl 95% EtOH, and adjusted at pH 2 to prevent peptide adsorption to serum proteins. […] Supernatants were analyzed by RP-HPLC on an Xbridge C18 column with a linear gradient of water, 0.08% TFA, and acetonitrile with 1% TFA. HPLC peak areas were used to calculate the percentages of intact compound remaining at the various time points. MIC and MBC values were determined in triplicate in many ESKAPE clinical isolates, including a dozen MDR S. aureus, by the broth microdilution method. Peptidomimetics and antibiotics were assayed in a concentration range of 1 to 128 μM. The bacterial inoculum (5 × 10^5 colony-forming units [CFUs]/well) was prepared in MHB or CAMHB (150 μl). A Biotek Synergy 2 spectrophotometer was used to record the results after 18–20 h incubation at 35°C (±2°C). […] After every hour of culture for 4 h, serial dilutions were plated on BHI plates and incubated overnight at 37°C, and then the CFUs were counted and expressed as log CFU/ml. Phosphate-buffered saline (PBS)-exposed S. aureus MRSA was included as a control.
# [2] = system: S. aureus Newman; assay: microbe, parasite or virus in culture
# Description: as §1
# [3] = system: E. faecium Aus0004; conditions: Aus0004
# Description: as §1
# [4] = Stability in human serum (half-life); assay type: in vitro ADME; conditions: 25% human serum, pre-incubated 15 min at 37°C, peptide 10^−4 M, RP-HPLC peak areas, mean of biological triplicates
# Description: as §1
# (§2) Supplementary file pbio.3000337.s013.docx: S7 Table Peptide half-lives in human and mouse sera. […] Peptide amounts and half-lives were determined by HPLC. Experiments were conducted on 25% human or mouse sera. Values are shown in minutes. The mean values correspond to biological triplicates. HPLC, high pressure liquid chromatography. (DOCX) Click here for additional data file.
# [5] = Stability in mouse serum (half-life); assay type: in vitro ADME; conditions: 25% mouse serum, pre-incubated 15 min at 37°C, peptide 10^−4 M, RP-HPLC peak areas, mean of biological triplicates
# Description: as §1, §2
# [6] = system: S. aureus MRSA; assay: Cutaneous abscess mouse model (lesion size, CFU); assay type: in vivo, mice; conditions: cutaneous abscesses from MRSA in mice; IV 24 h post-infection, 1.5 mg.kg-1; individual values
# Description: (§3) For the cutaneous abscess model, the mice were randomly divided into 5 sets. The mice were anesthetized with isoflurane, their dorsal fur shaved, and their skin disinfected with 70% ethanol. An overnight culture of S. aureus MRSA or P. aeruginosa LESB58 was washed with 0.9% NaCl, and then a subcutaneous injection of 2 × 10^9 CFUs and an equal amount of sterile Cytodex microcarrier beads (20 mg.ml^−1, Sigma) for S. aureus MRSA, or 10^8 CFUs for P. aeruginosa were injected into the shaved area. […] Mice were monitored every day and then euthanized with CO2 on Day 6 or on Day 3. Abscesses were excised, measured, and homogenized in PBS using an Ultra-Turax. Serial dilutions of the samples were plated on BHI (MRSA) or 2YT medium (LESB58) plates and then incubated overnight at 37°C. Afterward, the CFUs were counted and expressed as log CFU/ml. Dermonecrosis areas were calculated according to the formula π × L × W. ATP levels were determined with an ATP assay kit (Promega) according to manufacturer instructions on sets of 5 colonies harboring the SCV phenotype, and sets of 5 colonies harboring a normal phenotype, after growth on BHI plates.
# [7] = system: S. aureus; assay: Intracellular ATP levels of SCV versus normal colonies from skin abscesses; assay type: cell-based; conditions: individual values
# Description: as §3
# [8] = system: S. aureus N315 (MRSA); assay: microbe, parasite or virus in culture; conditions: Staphylococcus aureus, MRSA
# Description: as §1
# [9] = system: MRSA (Mu3); assay: microbe, parasite or virus in culture
# Description: (§4) For 15 d in MHB, MICs were determined daily for each pseudopeptide and their antibiotic controls. This was done using cells from the well in which the compound concentration was one-half of the MIC (1/2MIC). For each compound, the 1/2MIC well from the previous day’s MIC assay plate was re-suspended and the bacteria grown to a density of about 10^8 cells ml−1. The suspension was diluted in MHB or CAMHB (10^6 cells/ml) and then used to determine the MIC of the same compound determined by micro broth dilution. All MIC measurements were performed in duplicate. Aliquots of the 5 × 10^4 cell/ml dilutions for each 1/2MIC well were periodically plated on MHB and incubated at 35°C for 18 h to verify cell density by colony counts and for visual inspection of colony phenotypes. To control compound stability, peptide solution MICs were determined during and at the end of the 15 d and were compared to cells unexposed to antibiotics. In vivo resistance was also assessed in treated mice (1.5 mg.kg^−1) for 4 d (sepsis) or 6 d (skin abscesses). […] The broth microdilution method was performed as per EUCAST recommendations on 5 independent colonies per mouse (3 mice per set, 15 colonies per drug tested). For severe sepsis and subcutaneous abscesses, in vivo resistance was determined by plating aliquots of crude kidney extracts or abscesses on plates containing 1-, 2-, 4-, or 8-fold the peptide MICs 7 or 3 d post infections, respectively.
# [10] = system: MSSA (Newman); assay: microbe, parasite or virus in culture; conditions: Staphylococcus aureus
# Description: as §4
# [11] = system: MRSA (Mu3); assay: microbe, parasite or virus in culture; conditions: Staphylococcus aureus, MRSA
# Description: as §4
# [12] = system: MRSA; assay: Severe sepsis mouse model, survival; assay type: in vivo; conditions: mice, approximately 2 × 10^9 CFUs MRSA IV; 4 IV doses of 0.5 mg.kg^−1 at 2, 24, 48, 72 h
# From the text: Tolerance and toxicity studies were done on male Swiss mice (CD-1 Crl: CD-1 [ICR] IGS; Charles River). These were 7 to 10 weeks old and weighed an average of 37.2 g. All experimental protocols were approved by the Adaptive Therapeutics Animal Care and Use Committee (APAFiS #4508-2016031l15541258 v2). For the sepsis model, we used female Swiss mice (Janvier Labs), 6 to 8 weeks old and weighing approximately 30 g. Experiments were monitored in the ARCHE-BIOSIT animal lab in Rennes, in biological duplicate. We used Groups of 5 mice for the mild and the severe sepsis models with MRSA. Mice were IV inoculated with 150 μl of MRSA suspensions in 0.9% NaCl containing approximately 5 × 10^8 CFUs for the “mild” sepsis and approximately 2 × 10^9 CFUs for the “severe” sepsis, respectively. […] Mice survival was monitored for 4 d (“severe” sepsis) or 14 d (“mild” sepsis), and the statistical significance of difference(s) between the groups was evaluated using the Wilcoxon test. P < 0.05 was considered significant. Two weeks (“mild” sepsis) or 4 d (“severe” sepsis) after inoculation, mice were euthanized with CO2.
# [13] = system: S. aureus 33845; assay: microbe, parasite or virus in culture; conditions: Staphylococcus aureus
# Description: as §1
# (§5) Supplementary file pbio.3000337.s007.docx: S1 Table Antibacterial activity of the 4 peptidomimetics focusing on 9 S. aureus MDR clinical isolates. Clinical isolates BCB/POE and 740404 DUN are from human sepsis. The other strains are from catheter infections or suppurating wounds. Brilacidin was used as a control. MDR, multidrug resistant. (DOCX) Click here for additional data file.
# [14] = system: S. aureus 66534 E; assay: microbe, parasite or virus in culture; conditions: Staphylococcus aureus
# Description: as §1, §5
# [15] = system: S. aureus 702697 HOU; assay: microbe, parasite or virus in culture; conditions: Staphylococcus aureus
# Description: as §1, §5
# [16] = system: S. aureus 740404 DUN; assay: microbe, parasite or virus in culture; conditions: Staphylococcus aureus
# Description: as §1, §5
# [17] = system: S. aureus BCB/POE; assay: microbe, parasite or virus in culture; conditions: Staphylococcus aureus
# Description: as §1, §5
# [18] = system: S. aureus COB; assay: microbe, parasite or virus in culture; conditions: Staphylococcus aureus
# Description: as §1, §5
# [19] = system: S. aureus FORT; assay: microbe, parasite or virus in culture; conditions: Staphylococcus aureus
# Description: as §1, §5
# [20] = system: S. aureus PM64; assay: microbe, parasite or virus in culture; conditions: Staphylococcus aureus, PM64
# Description: as §1, §5
# [21] = system: S. aureus ROUS; assay: microbe, parasite or virus in culture; conditions: Staphylococcus aureus
# Description: as §1, §5
# [22] = system: Escherichia coli 13090
# Description: as §1
# [23] = system: Escherichia coli K12; conditions: E. coli K12
# Description: as §1
# [24] = system: Escherichia coli ML35P; conditions: E. coli ML35P
# Description: as §1
# [25] = system: P. aeruginosa 15643
# Description: as §1
# [26] = system: P. aeruginosa PA14; conditions: P. aeruginosa PA14
# Description: as §1
# [27] = system: P. aeruginosa LESB58; conditions: P. aeruginosa strain LESB58; biological triplicates
# Description: as §1, with “μM.” for “μM. The bacterial inoculum (5 × 10^5 colony-forming units [CFUs]/well) was prepared in MHB or CAMHB (150 μl). A Biotek Synergy 2 spectrophotometer was used to record the results after 18–20 h incubation at 35°C (±2°C).”, “Phosphate-buffered saline (PBS)-exposed S. aureus MRSA was included as a control.” left out
# For 15 d in MHB, MICs were determined daily for each pseudopeptide and their antibiotic controls. […] The suspension was diluted in MHB or CAMHB (10^6 cells/ml) and then used to determine the MIC of the same compound determined by micro broth dilution. […] To control compound stability, peptide solution MICs were determined during and at the end of the 15 d and were compared to cells unexposed to antibiotics. In vivo resistance was also assessed in treated mice (1.5 mg.kg^−1) for 4 d (sepsis) or 6 d (skin abscesses). […]
# [28] = system: P. aeruginosa LESB58; assay: Cutaneous abscess mouse model (CFU); assay type: in vivo, mice; conditions: mice, P. aeruginosa LESB58; 9 mg.kg^−1 subcutaneous multiple doses; day 3
# Description: as §3
# [29] = broth microdilution, 3 independent experiments
molecule,measurement,setting,value
"CCCCCCCCCC(=O)N[C@@H](Cc1c[nH]c2ccccc12)C(=O)N[C@H](CC(N)=O)C(=O)N[C@@H](CC(=O)O)C(=O)N[C@@H]1C(=O)NCC(=O)N[C@@H](CCCN)C(=O)N[C@@H](CC(=O)O)C(=O)N[C@H](C)C(=O)N[C@@H](CC(=O)O)C(=O)NCC(=O)N[C@H](CO)C(=O)N[C@@H]([C@H](C)CC(=O)O)C(=O)N[C@@H](CC(=O)c2ccccc2N)C(=O)O[C@@H]1C [Daptomycin, daptomycin, reference compound]",MIC,[1]; Mu3,0.5 (1) μM
same,MIC,[2]; Newman,0.25 (0.5) μM
same,MIC,[3],0.5 (1) μM
same,half-life,[4],2.18 ± 0.278 days
same,half-life,[5],> 2.43 days
CN[C@H](CC(C)C)C(=O)N[C@H]1C(=O)N[C@@H](CC(N)=O)C(=O)N[C@H]2C(=O)N[C@H]3C(=O)N[C@H](C(=O)N[C@H](C(=O)O)c4cc(O)cc(O)c4-c4cc3ccc4O)[C@H](O)c3ccc(c(Cl)c3)Oc3cc2cc(c3O[C@@H]2O[C@H](CO)[C@@H](O)[C@H](O)[C@H]2O[C@H]2C[C@](C)(N)[C@H](O)[C@H](C)O2)Oc2ccc(cc2Cl)[C@H]1O [Vanco],Area of dermonecrosis,[6],88.6 mm2 and 44.4 mm2 and 88.5 mm2 and 82.8 mm2 and 67.1 mm2 and 13 mm2 and 197.8 mm2 and 164.7 mm2 and 166.7 mm2 and 90 mm2
same,"Intracellular ATP level, 'normal growing'",[7]; 'normal growing' colonies from MRSA abscesses of mice treated IV with 1.5 mg.kg-1,122379 AU and 119801 AU and 111813 AU and 113023 AU and 103234 AU
same,"Intracellular ATP level, SCV",[7]; SCV from MRSA abscesses of mice treated IV with 1.5 mg.kg-1,20326.9 AU and 5706.67 AU and 6923.08 AU and 10333.3 AU and 15090.9 AU
"CN[C@H](CC(C)C)C(=O)N[C@H]1C(=O)N[C@@H](CC(N)=O)C(=O)N[C@H]2C(=O)N[C@H]3C(=O)N[C@H](C(=O)N[C@H](C(=O)O)c4cc(O)cc(O)c4-c4cc3ccc4O)[C@H](O)c3ccc(c(Cl)c3)Oc3cc2cc(c3O[C@@H]2O[C@H](CO)[C@@H](O)[C@H](O)[C@H]2O[C@H]2C[C@](C)(N)[C@H](O)[C@H](C)O2)Oc2ccc(cc2Cl)[C@H]1O [Vancomycin, vancomycin]",MIC,"[1]; Staphylococcus aureus, MRSA",1 µM
same,MIC,[8],2 µM
same,MIC,"[2]; Staphylococcus aureus, NEWMAN",0.5 µM
same,MIC,"[9]; MRSA (Mu3), d14 of serial passages at sub-MIC",1 (1.4) μM
same,MIC,"[9]; Staphylococcus aureus, MRSA",1 µM
same,MIC,"[10]; MSSA (Newman), d0 of serial passages",0.5 µM
same,MIC,"[10]; MSSA|NEWMAN, d14 of serial passages at sub-MIC",1 µM
same,MIC,[11],1 µM
same,MIC,[11]; 24 h,1 µM
same,Survival in severe sepsis,[12],much less effective
"N=C(N)NCCCCC(=O)Nc1cc(C(F)(F)F)cc(NC(=O)c2cc(C(=O)Nc3cc(C(F)(F)F)cc(NC(=O)CCCCNC(=N)N)c3O[C@@H]3CCNC3)ncn2)c1O[C@@H]1CCNC1 [brilacidin, reference compound]",MIC,[13],1 µg/mL
same,MIC,[14],1 µg/mL
same,MIC,[15],1 µg/mL
same,MIC,[16],1 µg/mL
same,MIC,[17],1 µg/mL
same,MIC,[18],1 µg/mL
same,MIC,[19],1 µg/mL
same,MIC,[20],1 µg/mL
same,MIC,[21],1 µg/mL
same,Survival in severe sepsis,[12],cured the infected animals
colistin,MBC/MIC,[22]; E. coli 13090,1
same,MIC,"[22]; E. coli 13090, clinical strain, Caen hemoculture, broth microdilution, 3 independent experiments",1 (1.3) μM
same,MBC/MIC,[23],1
same,MIC,[23]; [29],0.5 (0.65) μM
same,MBC/MIC,[24],1
same,MIC,[24]; [29],0.5 (0.65) μM
same,MBC/MIC,[25]; P. aeruginosa 15643,2
same,MIC,"[25]; P. aeruginosa 15643, clinical strain, Caen hemoculture, broth microdilution, 3 independent experiments",0.5 (0.65) μM
same,MBC/MIC,[26],2
same,MIC,[26]; [29],0.5 (0.65) μM
same,MIC,[27],1 µM
same,Number of bacteria in abscess,[28],lowered the number of bacteria
